Patent US20230044979A1, “ANIMAL CELL CULTURING METHOD” (AJINOMOTO CO., INC., priority 2020, published 2023)

Tests used:
CHO cells [1] = experiment: Effect of addition of L-cysteine derivatives to feed medium on proliferation of CHO cells and antibody production (3); type: cell-based, Chinese hamster; settings: 58 mM in feed medium, 11 days culture, compared to the case without addition of L-cysteine; for cell count: FIG. 6; for antibody production amount: FIG. 7
Procedure: (§1) CELLiST (registered trademark) Basal media (Ajinomoto Co., Ltd.: BASAL3; containing 1.3 mM L-cysteine) was added with LR3-IGF-1 (SIGMA-ALDRICH: I1271-1MG, final concentration of 50 μg/mL) and L-Glutamine (Thermo Fisher SCIENTIFIC: 25030081, final concentration of 6 mM), to prepare a basal medium.
Feed media each containing 82 g/L Cellvento (registered trademark) Feed-210 (Merck: 1.02488.0005), 70 g/L glucose (Wako Pure Chemical Industries, Ltd.: 043-31163), and L-cysteine, Compound 4, Compound 8, Compound 9, or Compound 11 each at 58 mM were prepared. In addition, a feed medium without addition of L-cysteine, which only contained 82 g/L Cellvento (registered trademark) Feed-210 and 70 g/L glucose, was prepared. Separately, a tyrosine concentrate (L-tyrosine disodium salt dihydrate (Merck: 122666-87-9) 74.82 g/L, pH 11.3) was prepared.
A 30 mL-aliquot of a CHO cell suspension adjusted to 3×10^5 cells/mL using the prepared basal medium was seeded into 125 mL-volume flasks (CORNING: 431143), and cultured for 11 days. The culture was carried out with n=2 for all experimental groups. The culture temperature was 37° C. and the agitation speed was 110 rpm. A 1.8 mL-aliquot of each of the prepared feed media and a 120 μL-aliquot of the tyrosine concentrate were added on days 4, 7, and 9 from the start of the culture. A cell culture broth was sampled on days 4, 7, 9, and 11 from the start of the culture, and the viable cell count was measured using a viable/dead cells autoanalyzer Vi-CELL™ XR (Beckman Coulter), and the antibody production amount was measured using Octet QK (FORTEBIO).

[2] = Stability of L-cysteine derivatives in buffer solution (crystal precipitation by visual observation); type: physicochemical; settings: 58 mM in PBS buffer pH 7.0 to 7.2; for relative stability compared with L-cysteine: 5° C. in the dark; for crystal precipitation, Days 0 / crystal precipitation, Days 3 / crystal precipitation, Days 7 / crystal precipitation, Days 14 / crystal precipitation, Days 21 / crystal precipitation, Days 24: stored at 5° C. in the dark; for crystal precipitation, Days 0: day 0; for crystal precipitation, Days 3: day 3; for crystal precipitation, Days 7: day 7; for crystal precipitation, Days 14: day 14; for crystal precipitation, Days 21: day 21; for crystal precipitation, Days 24: day 24
Procedure: In this Example, the stability of L-cysteine derivatives in a buffer solution was evaluated.
In the table, “+” to “++++” indicate that crystal precipitation was observed, and the higher the number of “+”, the greater the degree of precipitation.

CHO cells [3] = experiment: Effect of addition of L-cysteine derivatives to feed medium on proliferation of CHO cells and antibody production (2); type: cell-based, Chinese hamster; settings: for proliferation performance of cells: 14.5 mM in feed medium, L-cysteine in the feed medium substituted; for proliferation performance of cells / cell count, dependence on concentration: FIG. 4; for IgG production amount: 58.0 mM in feed medium; for IgG production amount / IgG production amount, dependence on concentration: FIG. 5; for cell count, dependence on concentration / IgG production amount, dependence on concentration: 14.5, 29, 58 mM in feed medium
Procedure: as §1
Feed media each containing 82 g/L Cellvento (registered trademark) Feed-210 (Merck: 1.02488.0005), 70 g/L glucose (Wako Pure Chemical Industries, Ltd.: 043-31163), and L-cysteine, Compound 3S, or Compound 3R each at 14.5 mM, 29 mM, or 58 mM were prepared. Separately, a tyrosine concentrate (L-tyrosine disodium salt dihydrate (Merck: 122666-87-9) 74.82 g/L, pH 11.3) was prepared.
A 3 mL-aliquot of a CHO cell suspension adjusted to 3×10^5 cells/mL using the prepared basal medium was seeded into a 6 well plate (CORNING, Cat. No. CLS3471), and cultured for 14 days. The culture was carried out with n=2 for all experimental groups. The culture temperature was 37° C. and the agitation speed was 110 rpm. A 0.18 mL-aliquot of each of the prepared feed media and a 12 μL-aliquot of the tyrosine concentrate were added on days 4, 7, 9, and 11 from the start of the culture. A cell culture broth was sampled on days 4, 7, 9, 11, and 14 from the start of the culture, and the viable cell count was measured using a viable/dead cells autoanalyzer Vi-CELL™ XR (Beckman Coulter), and the antibody production amount on days 11 and 14 from the start of the culture was measured using Octet QK (FORTEBIO).

Compound | cell count (CHO cells [1]) | antibody production amount (CHO cells [1]) | relative stability compared with L-cysteine [2] | crystal precipitation, Days 0 [2] | crystal precipitation, Days 3 [2] | crystal precipitation, Days 7 [2] | crystal precipitation, Days 14 [2] | crystal precipitation, Days 21 [2] | crystal precipitation, Days 24 [2] | ability to substitute for L-cysteine (CHO cells [3]; in feed medium) | proliferation performance of cells (CHO cells [3]) | IgG production amount (CHO cells [3]) | cell count, dependence on concentration (CHO cells [3]) | IgG production amount, dependence on concentration (CHO cells [3])
CC(C)OC(=O)C1(C)N[C@H](C(=O)O)CS1 (mixture of isomers) [Compound 4, (2RS,4R)-2-methyl-2,4-thiazolidinedicarboxylic acid 2-i-propyl ester] | higher than those of the case without addition of L-cysteine | higher than those of the case without addition of L-cysteine | more stable than L-cysteine | − | − | − | − | − | − |  |  |  |  | 
CC(C)(C)OC(=O)C1(C)N[C@H](C(=O)O)CS1 (mixture of isomers) [Compound 6, (2RS,4R)-2-methyl-2,4-thiazolidinedicarboxylic acid 2-t-butyl ester] |  |  | more stable than L-cysteine | − | − | − | − | − | − |  |  |  |  | 
CCOC(=O)C1N[C@H](C(=O)O)CS1 (mixture of isomers) [Compound 8, (2RS,4R)-2,4-thiazolidinedicarboxylic acid 2-ethyl ester] | higher than those of the case without addition of L-cysteine | higher than those of the case without addition of L-cysteine | more stable than L-cysteine | − | − | − | − | − | − |  |  |  |  | 
COC(=O)C1(Cc2ccc(O)cc2)N[C@H](C(=O)O)CS1 (mixture of isomers) [Compound 9, (2RS,4R)-2-(4-hydroxyphenyl)methyl-2,4-thiazolidinedicarboxylic acid 2-methyl ester] | higher than those of the case without addition of L-cysteine | higher than those of the case without addition of L-cysteine | more stable than L-cysteine | − | − | − | − | − | − |  |  |  |  | 
COC(=O)C1(CC(C)C)N[C@H](C(=O)O)CS1 (mixture of isomers) [Compound 11, (2RS,4R)-2-i-butyl-2,4-thiazolidinedicarboxylic acid 2-methyl ester] | decreased | decreased |  |  |  |  |  |  |  |  |  |  |  | 
COC(=O)[C@@]1(C)N[C@H](C(=O)O)CS1 (stereo in doubt) [Compound 3, (2RS,4R)-2-methyl-2,4-thiazolidinedicarboxylic acid 2-methyl ester] |  |  |  |  |  |  |  |  |  | able to substitute for L-cysteine |  |  |  | 
COC(=O)[C@]1(C)N[C@H](C(=O)O)CS1 (stereo in doubt) [Compound 3R, (2RS,4R)-2-methyl-2,4-thiazolidinedicarboxylic acid 2-methyl ester] |  |  | more stable than L-cysteine | − | − | − | − | − | − |  | approximately 70% | equivalent to that of the group adding 14.5 mM or 29.0 mM of L-cysteine hydrochloride monohydrate | increased in a concentration-dependent manner | increased in a concentration-dependent manner
COC(=O)[C@@]1(C)N[C@H](C(=O)O)CS1 (stereo in doubt) [Compound 3S, (2RS,4R)-2-methyl-2,4-thiazolidinedicarboxylic acid 2-methyl ester] |  |  | more stable than L-cysteine | − | − | − | − | − | − |  | approximately 70% | equivalent to that of the group adding 14.5 mM or 29.0 mM of L-cysteine hydrochloride monohydrate | increased in a concentration-dependent manner | increased in a concentration-dependent manner
